According to patent publication US20260200882A1, “NOVEL FIVE-MEMBERED HETEROCYCLE SUBSTITUTED STYRENE DERIVATIVE, AND PREPARATION METHOD THEREFOR AND USE THEREOF” (Guangzhou Nanocrystal Biotechnology Co., Ltd., priority 2022, published 2026):

What was measured:
[1] = tested on: LPS-induced NO production in macrophages (RAW264.7); assay: Inhibition of LPS-induced NO production in macrophages; type: cell-based, mouse; parameters: dose or concentration left out as unconfirmed; details: LPS-induced RAW264.7, 24 h
Description: In this test example, the styrene derivatives prepared by embodiments 2-20 were tested for their toxicities to mouse macrophages (RAW264.7). The nitric oxide (NO) inhibition assays using lipopolysaccharide (LPS)-induced RAW264.7 cells were also performed to evaluate their anti-inflammatory activities (Test methods refer to Zhou W. et al. Biomed Pharmacother 2020, 131:110696.).
(2) Inhibition of LPS-Induced NO Production Activity in Macrophages was Tested (the Test Method Refers to Biomed Pharmacother. 2020 November; 131:110696):
Mouse macrophages (RAW264.7) were taken, inoculated into 96-well plates ([…]) at a concentration of 5×10^5/mL and cultured in a 5% CO2 incubator at 37° C. for 18 h. Then, the compound (final concentration: […]) and LPS (final concentration: 5 µg/mL) were added into a cell culture solution and cultured at 37° C. for 24 h. Then, the supernatant of the cell culture solution was taken and placed into a new 96-well plate by 50 µL per well; and then 50 µL of solution A and 50 µL of solution B of a Beyotime NO kit were added.
After culturing in the incubator at 37° C. for 10 min, the absorbance (OD value) at 540 nm was tested.

[2] = tested on: Mouse macrophages (RAW264.7); assay: Toxicity to macrophages by MTT method; type: cell-based; details: RAW264.7, MTT, 48 h culture with compound
Description: (1) the Toxicity to Macrophages was Tested by MTT Method:
Mouse macrophages (RAW264.7) were taken, inoculated into 96-well plates ([…]) at a concentration of 3×10^4/mL and cultured in an incubator of 5% CO2 at 37° C. for 18 h. After the cells adhered to the wall, the supernate was discarded and compounds of different concentrations were added to continue the culture for 48 h. 0.5 mg/mL of MTT was added. After continued culture for 4 h, […] of DMSO was added to each well, and then shaken on a shaker for 10 min. Absorbance (OD value) at 570 nm was measured by a microplate reader, and IC50 was calculated by Prism software.

Row | SMILES | Inhibitory activity against nitric oxide production (%) [1] [%] | IC50 ([2]; Mus musculus) [nM] | IC50 [2] [nM]
1 | CC(C)c1c(O)cc(/C=C/c2ccoc2)cc1O [No 2] | <50 | > 1000 | 
2 | CC(C)c1c(O)cc(/C=C/c2cncs2)cc1O [No 3] | >50 | > 1000 | 
3 | CC(C)c1c(O)cc(/C=C/c2cscn2)cc1O [No 4] | <50 | > 1000 | 
4 | Oc1cc(/C=C/c2ccsc2)cc(O)c1C1CC1 [No 5] | <50 | > 1000 | 
5 | Oc1cc(/C=C/c2ccoc2)cc(O)c1C1CC1 [No 6] | <50 | > 1000 | 
6 | Oc1cc(/C=C/c2ccsc2)cc(O)c1C1=CCCC1 [No 7] | <50 | > 1000 | 
7 | Oc1cc(/C=C/c2cscn2)cc(O)c1C1=CCCC1 [No 9] | <50 |  | > 1000
8 | Oc1cc(/C=C/c2cncs2)cc(O)c1C1=CCCC1 [No 10] | <50 |  | > 1000
9 | Oc1cc(/C=C/c2ccsc2)cc(O)c1C1CCCC1 [No 11] | <50 | > 1000 | 
10 | Oc1cc(/C=C/c2cscn2)cc(O)c1C1CCCC1 [No 12] | <50 | > 1000 | 
11 | Oc1cc(/C=C/c2ccoc2)cc(O)c1Br [No 13] | <50 | > 1000 | 
12 | C=C(C)c1c(O)cc(/C=C/c2cscn2)cc1O [No 16] | <50 | > 1000 | 
13 | C=C(C)c1c(O)cc(/C=C/c2cncs2)cc1O [No 17] | <50 | > 1000 | 
14 | COc1cc(/C=C/c2ccsc2)cc(O)c1C1CC1 [No 18] | >50 | > 1000 | 
15 | COc1cc(/C=C/c2ccsc2)cc(O)c1Br [No 19] | >50 | > 1000 | 
16 | COc1cc(/C=C/c2ccoc2)cc(O)c1C(C)C [No 20] | >50 |  | > 1000
